Test results reported in patent US20220056075A1, “METHOD FOR TREATING OPIOID USE DISORDER” (THE ADMINISTRATORS OF THE TULANE EDUCATIONAL FUND, priority 2019, published 2022).
Values joined by “and” are separate entries in the source; they are usually repeats but may differ in a detail not shown here. Equal values may be shown once. “Also recorded” adds a separate entry of the source.

Columns and labels:
DBA mice = assay: Hot plate antinociception test; type: in vivo, mouse; conditions: 40 mg/Kg, s.c.
male rats [1] = assay: Maintenance of established oxycodone self-administration (substitution); type: in vivo, rat; conditions: after acquisition of oxycodone SA; drug continued or substituted, i.v. infusions
Protocol: (§1) Self-administration (SA): Self-administration tests were conducted in standard operant chambers (MED Associates, St. Albans, Vt.). Infusions were delivered through TYGON tubing threaded through metal spring leashes and attached to exterior infusion pumps. 3-hour sessions were conducted Monday-Friday during the dark cycle. At the start of each session, the house light was illuminated, and levers extended. […] For the first 5 sessions, rats were trained to lever press for oxycodone (0.1 mg/kg/infusion) on a FR1 reinforcement schedule. For the following 10 sessions, the dose of oxycodone was decreased to 0.05 mg/kg/infusion to increase lever responding.
Maintenance of established oxycodone self-administration: Following acquisition of oxycodone self-administration, animals were split into treatment groups counterbalanced for total oxycodone intake, average number of infusions obtained in the last 3 sessions, and average number of active lever pressings over the last 3 sessions. Ten maintenance sessions were conducted in the same way as oxycodone acquisition except rats were either maintained on 0.1 mg/kg/infusion oxycodone or had drug availability substituted with equi-antinociceptive 1 mg/kg/infusion ZH853 or vehicle.

male rats [2] = assay: Forced abstinence and relapse test (oxycodone seeking); type: in vivo, rat; conditions: 8th day of forced abstinence; i.v. pretreatment ZH853 1.8 or 3.2 mg/kg, oxycodone 0.32 mg/kg
Protocol: as §1
Forced abstinence and relapse test: Following acquisition of oxycodone self-administration, rats underwent 7 days of forced abstinence from oxycodone and exposure to the testing environment in their home cages. Animals were then split into treatment groups counterbalanced for total oxycodone intake, average number of infusions obtained in the last 3 sessions, and average number of active lever pressings over the last 3 sessions. On the 8th day of forced abstinence, rats were given an intravenous injection of 1.8 mg/kg ZH853, 3.2 mg/kg ZH853, or vehicle. The relapse test began 30 minutes later.

Male Sprague Dawley rats [3] = assay: Locomotor sensitization during CPP conditioning sessions; type: in vivo, rat; conditions: 1.8, 3.2, 5.6 mg/Kg i.v., 5 daily injections, compared to vehicle
Protocol: (§2) Conditioned Place Preference (CPP) and locomotor activity: Standard CPP chambers (TSE; Chesterfield, Mo.) were used to measure baseline activity and conditioning trials. Baseline activity was measured over 2 days with 4 trials per day (2 in the AM, and 2 in the PM) lasting 20 min each. […] Conditioning trials were conducted for 5 days and tested in an unbiased manner such that drug/environment pairings were counterbalanced for time of drug injection (AM or PM) and compartment (preferred or non-preferred) based on baseline activity. […] This indicates a lack of carry-over effects of drug between sessions. One day following the last conditioning trial, a 20 min test trial was conducted in the same manner as baseline trials in which rats were free to explore both compartments. Change in time spent exploring the drug-paired compartment (test-baseline) was used to indicate preference (or aversion) to the compartment. Approximately 20 min following the final session, rats were perfused and brain samples were taken for immunohistochemical analysis (below). Locomotor activity was assessed by infrared light beams located in the conditioning compartments and the start box. […] Data were recorded in meters and an assessment of locomotor sensitization was made by subtracting the first session from the final session.
(§3) Experimenters were blinded to treatment groups.

Male Sprague Dawley rats [4] = assay: Conditioned place preference (CPP), 5-day procedure; type: in vivo, rat; conditions: 5 days of conditioning
Protocol: as §2, §3

male and female mice = type: in vivo, mouse; conditions: s.c., compared to vehicle
[5] = system: dopamine (DA) neurons in the posterior VTA; assay: VTA dopamine cell soma morphology (TH staining, STEREO INVESTIGATOR); type: in vivo, rat; conditions: 5 consecutive daily i.v. injections; morphine effect at 5.6 mg/Kg
Protocol: DA morphology analysis: Fifteen min following the final CPP test session, rats were anesthetized with a mixture of ketamine/xylazine (85/10 mg/Kg, i.p., respectively) and perfused intracardially with 200 mL of 0.1 mol/L phosphate buffered saline (PBS) immediately followed by 300 mL of 4% paraformaldehyde in 0.1 mol/L PBS (pH=7.4). Brains were removed and post-fixed at 4° C. in the same fixative for 18 h. After post-fixation, brains were incubated in 30% sucrose at 4° C. for 2 days and sectioned coronally on a cryostat at 40 μm at the level of the posterior VTA (Spiga et al., 2003; Chu et al., 2008). After 2 consecutive washes in PBS, sections were blocked with 5% normal donkey serum (NDS) for 1 h, and incubated with the primary antibody anti-tyrosine-hydroxylase (anti-TH, 1: 3000 Cell Signaling Technology, Danvers, Mass.) overnight at 4° C. Slices were washed twice in PBS, re-blocked for 1 h, and incubated with the secondary antibody ALEXA594 (Life Technologies, Carlsbad, Calif.), for 2 h. Sections were washed, mounted on slides with PROLONG GOLD (Life Technologies), and stored at 4° C. Posterior VTA sections were verified according to the atlas of Paxinos and Watson (2007). Images of the parabrachial pigmented area (PBP) and the paranigral area (PN) subregions of the posterior VTA were captured in z-stacks (1 μm) with at least 5 tissue slices per rat and 5-6 rats per drug group. STEREO INVESTIGATOR software (MBF Bioscience; Williston, Va.) was used to quantify soma size using the optical fractionator probe to survey a sample of neurons in each z-stack while the nucleator probe was used to measure the cross-sectional area and volume of each cell soma. The optical fractionator probe was used to quantify the number of cells in a particular section of tissue through systematic random sampling. Between 12 and 16 regions were surveyed per z-stack. While the optical fractionator probe utilized stereological techniques to select a random sample to be analyzed, the nucleator probe measured the cross-sectional area of each neuron. Therefore, the simultaneous use of these probes systematically assessed neurons in the PBP and PN regions of the VTA in each subject, and provided morphological data for these cells including surface area (μm^2) and volume (μm^3). Cell somas were eligible to be quantified if they were located within the counting frame and/or if the soma touched either of the nucleator frame's green borders. Neurons were ineligible if located outside the counting frame and/or if their soma touched the frame's red borders. After determining this optimum depth, the center of the soma was located and analyzed by the nucleator probe. To eliminate bias associated with tissue orientation, nucleator rays were randomly arranged between quantifications. […]

[6] = system: rats trained to discriminate morphine from vehicle; assay: Drug discrimination (DD), morphine-trained rats; conditions: for Maximum % drug-appropriate responding / response rates for food during test sessions: i.v.; for Maximum % drug-appropriate responding: male rats; for Response rate impairment %: highest dose tested (5.6 mg/Kg), percent of vehicle responding; for response rates for food during test sessions: compared to vehicle
Protocol: Drug Discrimination (DD): Rats were food deprived to approximately 85% of the weight of free feeding cohorts to establish operant responding for 45 mg food pellets (Bioserve, Frenchtown, N.J.) in standard operant chambers (MED Associates, St. Albans, Vt.). Rats were fed 10-20 g of standard food after daily DD sessions, and ˜3× the daily amount on weekends to maintain appropriate weight. DD consisted of 3 phases (Krivsky et al., 2006). In phase 1, rats were trained to lever press for food at a fixed ratio (FR) level 1 (i.e., 1 lever press=1 food pellet) using 2 levers with stimulus lights located above each lever and a food hopper between the levers during 120 min sessions. Responding on either lever extinguished the light and delivered a food pellet. […] Once >20 pellets were earned at FR9, sessions were shortened to 20 min and response requirements were set at FR10 and the left or right lever reinforced responding on alternate days. Once >20 pellets were earned on each lever at FR10, rats started phase 2 of DD training.
Only responses on the correct lever were reinforced and responses on the incorrect lever reset the response requirement on the correct lever. Criteria to move to phase 3 were as follows: >20 pellets per session, >90% injection appropriate lever responding, and <9 responses on the incorrect lever before the first food pellet reward.
Two paradigms were utilized to generate substitution curves: cumulative within-session and bolus between-session injections.
During substitution tests, both levers actively delivered food at an FR10 schedule. […] Doses were increased in ¼ log increments, with injections every 20 min followed 15 minutes later by DD sessions lasting 5 min each. […] The advantage of this procedure was that an entire dose-response was generated in one session.
Statistics: PRISM software (GraphPad, San Diego, Calif.) was used for one-way analysis of variance (ANOVA) with Newman-Keuls post-hoc comparisons to compare CPP groups, locomotor effects, hot plate, and DD response rates. Locomotor data recorded during the conditioning sessions were analyzed by 2-way ANOVA (session x drug) and data from the first session were subtracted from the final session to assess locomotor enhancement. Experimenters were blinded to treatment groups.

Male Sprague-Dawley rats = assay: Reinstatement of morphine-induced conditioned place preference; conditions: priming dose 1.8 mg/Kg, 20 min, vs baseline
Protocol: Male Sprague-Dawley rats were exposed to a conditioned place preference (CPP) apparatus for two sessions to determine baseline (BL) preference for 2 distinct, unbiased chambers. […] The animals then underwent extinction procedures consisting of confinement for 45 min in the previously drug- and vehicle-paired chambers for 7 days.

male and female rats = assay: Naloxone-induced conditioned place aversion (CPA); type: in vivo, rat; conditions: i.v. morphine 5.6 mg/Kg or ZH853 4.2 mg/Kg, naloxone 1 mg/Kg s.c. 4 h later
Protocol: Four hours later they received s.c. naloxone (1 mg/Kg) and were confined to one side of the apparatus (counterbalanced) for 20 min. The following day the animals received vehicle-then-saline rather than drug-then-naloxone. This cycle (drug+4 h+nlx+next day vehicle+saline) was repeated once, and the next day the animals had access to the entire apparatus (Post-cond).
To assess whether ZH853 induces the negative affect typical of opioid withdrawal, the conditioned place aversion (CPA) test was conducted.

rats = conditions: cited from earlier work
[7] = cumulative doses producing maximum antinociceptive effects; cited from earlier work

## COC(=O)/C=C/C(=O)N[C@@H]1CC[C@@]2(O)[C@H]3Cc4ccc(O)c5c4[C@@]2(CCN3CC2CC2)[C@H]1O5 [βFNA, beta-funaltrexamine]
DBA mice
  antinociceptive properties alone: no antinociceptive properties alone

## COc1ccc2c3c1O[C@H]1C(=O)CC[C@@]4(O)[C@@H](C2)N(C)CC[C@]314 [oxycodone, reference compound]
Male rats [1]
  self-administration behavior during maintenance sessions: the drug-seeking behavior was maintained
Male rats [2]
  oxycodone-seeking (SA behavior, active lever responding) in 1-hour relapse test: associated with a relapse to SA behavior

## CN1CC[C@]23c4c5ccc(O)c4O[C@H]2[C@@H](O)C=C[C@H]3[C@H]1C5.O=S(=O)(O)O [Morphine, Morphine sulfate, reference compound]
Male Sprague Dawley rats [3]
  locomotor sensitization (LS), day 5 minus day 1: produced LS at all doses tested
Male Sprague Dawley rats [4]; 3.2 mg/Kg i.v.
  conditioned place preference (CPP): produced conditioned place preference (CPP) effects
Male Sprague Dawley rats [4]; 1.8 and 5.6 mg/Kg i.v.
  conditioned place preference (CPP): did not produce significant CPP
Male and female mice
  tail flick antinociception: increased the latency to tail flick
[5]
  surface area of TH-positive somas in pVTA: reduced
  volume of TH-positive somas in pVTA: reduced
[6]; bolus injections
  doses disrupting response rates during test sessions: ≥ 3.2 mg/kg
[6]; bolus injections made between sessions
  Maximum % drug-appropriate responding: 100%
[6]; bolus injections, sulfate
  Response rate impairment %: 77% and 77.1%
[6]; cumulative injections
  doses disrupting response rates during test sessions: ≥ 5.6 mg/kg
[6]; cumulative injections within a single session
  Maximum % drug-appropriate responding: 100%
[6]; cumulative injections, sulfate
  Response rate impairment %: 55% and 54.5%
[6]
  response rates for food during test sessions: reduced response rates compared to vehicle
[6]; training doses 3.2 mg/Kg s.c. and 1.8 mg/Kg i.v., compared to saline
  response rates for food during training: modestly impaired
[6]; training, after approximately 20 sessions
  appropriate drug-lever responding: > 90%
Male Sprague-Dawley rats
  reinstatement of morphine CPP after extinction: showed reinstatement of CPP
Male and female rats
  naloxone-induced place aversion: produces aversive behavior
rats; 12-hour SA sessions, 1 mg/Kg/infusion
  hourly SA intake: ~3.5 mg/kg/h

## NC(=O)[C@@H]1CCCCNC(=O)CC[C@@H](NC(=O)[C@@H](N)Cc2ccc(O)cc2)C(=O)N[C@@H](Cc2ccccc2)C(=O)N[C@@H](Cc2ccccc2)C(=O)N1 [ZH831, Tyr-c[D-Glu-Phe-Phe-Lys]-NH2]
[6]; bolus injections
  Response rate impairment %: 21% and 21.1%
[6]; cumulative injections
  Response rate impairment %: 31% and 30.6%
[6]
  response rates for food during test sessions: not impaired
[7]
  motor impairment on the Rotarod: lack of motor impairment
rats; rat, in vivo
  reinforcing effects in SA/CPP procedures: did not produce reinforcing effects in SA/CPP procedures

## NC(=O)[C@@H]1CCC(=O)NCCCC[C@@H](NC(=O)[C@@H](N)Cc2ccc(O)cc2)C(=O)N[C@@H](Cc2c[nH]c3ccccc23)C(=O)N[C@@H](Cc2ccccc2)C(=O)N1 [ZH850, Tyr-c[D-Lys-Trp-Phe-Glu]-NH2]
[6]; bolus injections
  Response rate impairment %: 30% and 30.4%
[6]; cumulative injections
  Response rate impairment %: −0.3%
[6]
  response rates for food during test sessions: impaired response rates only after bolus, but not after cumulative injections; also recorded: reduced response rates compared to vehicle
